# Results published in the supplement of paper PMC10307832.
# Columns and labels:
# Test in all cases: relative viability (nuclei count vs DMSO), 5 days (fraction); higher = more cells survive
# Daporinad + Lapatinib = compound: O=C(/C=C/c1cccnc1)NCCCCC1CCN(C(=O)c2ccccc2)CC1 [Daporinad] + CS(=O)(=O)CCNCc1ccc(-c2ccc3ncnc(Nc4ccc(OCc5cccc(F)c5)c(Cl)c4)c3c2)o1 [Lapatinib] (partner 2 µM)
# Summary of the method: (§1)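 For relative viability, nuclei counts in treated wells were divided by those in vehicle wells. Lung cancer cell lines had been pin-tool dosed in 1536-well plates the day after seeding and cultured for 5 days, then fixed and stained in one step (final 0.05% Triton X-100, 1% formaldehyde, 1 ug/ml Hoechst) and imaged at 4×. Doses were one drug alone or a fixed anchor-drug dose plus five library-drug doses (not always all listed) in √10 steps, and values are duplicate-plate medians.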
# R406 + Phenformin = compound: COc1cc(Nc2ncc(F)c(Nc3ccc4c(n3)NC(=O)C(C)(C)O4)n2)cc(OC)c1OC [R406] + N=C(N)NC(=N)NCCc1ccccc1 [Phenformin] (partner 250 µM)
# Summary of the method: as §1
# R406 + Vorinostat = compound: COc1cc(Nc2ncc(F)c(Nc3ccc4c(n3)NC(=O)C(C)(C)O4)n2)cc(OC)c1OC [R406] + O=C(CCCCCCC(=O)Nc1ccccc1)NO [Vorinostat] (partner 1 µM)
# Summary of the method: as §1
# Daporinad + Vorinostat = compound: O=C(/C=C/c1cccnc1)NCCCCC1CCN(C(=O)c2ccccc2)CC1 [Daporinad] + O=C(CCCCCCC(=O)Nc1ccccc1)NO [Vorinostat] (partner 1 µM)
# Summary of the method: as §1
Cell Line,relative viability (Daporinad + Lapatinib; first compound 0.0005 µM),relative viability (Daporinad + Lapatinib; first compound 0.001581 µM),relative viability (Daporinad + Lapatinib; first compound 0.005 µM),relative viability (Daporinad + Lapatinib; first compound 0.01581 µM),relative viability (R406 + Phenformin; first compound 0.08 µM),relative viability (R406 + Phenformin; first compound 0.253 µM),relative viability (R406 + Phenformin; first compound 0.8 µM),relative viability (R406 + Phenformin; first compound 2.53 µM),relative viability (R406 + Phenformin; first compound 8 µM),relative viability (R406 + Vorinostat; first compound 0.08 µM),relative viability (R406 + Vorinostat; first compound 0.253 µM),relative viability (R406 + Vorinostat; first compound 0.8 µM),relative viability (R406 + Vorinostat; first compound 2.53 µM),relative viability (R406 + Vorinostat; first compound 8 µM),relative viability (Daporinad + Vorinostat; first compound 0.0005 µM),relative viability (Daporinad + Vorinostat; first compound 0.001581 µM),relative viability (Daporinad + Vorinostat; first compound 0.005 µM),relative viability (Daporinad + Vorinostat; first compound 0.01581 µM)
NCI-H838,0.998,1.31,0.966,0.5,0.569,0.634,0.727,0.188,0.132,0.694,0.795,0.769,0.458,0.194,0.763,0.814,0.49,0.418
H3255,0.24,0.255,0.247,0.235,0.366,,0.352,0.369,0.311,0.767,0.816,0.996,0.72,0.638,0.668,0.591,0.775,0.979
NCI-H2170,0.285,0.263,0.274,0.276,0.405,0.414,0.44,0.316,0.372,0.799,0.791,0.987,0.571,0.658,0.769,0.81,0.827,0.822
NCI-H1437,0.704,0.879,0.867,0.85,0.301,0.31,0.251,0.29,0.201,0.901,0.983,0.84,0.835,0.602,0.759,0.831,0.893,0.718
NCI-H358,0.359,0.634,0.533,0.451,0.298,0.3,0.309,0.151,0.115,0.766,0.726,0.722,0.314,0.273,0.688,0.75,0.801,0.558
LU99A,0.839,1.14,0.98,1.17,0.789,0.99,0.95,0.556,0.759,0.519,0.484,0.553,0.361,0.312,0.499,0.594,0.545,0.571
SK-MES-1,0.464,0.484,0.51,0.471,0.645,0.685,0.706,0.583,0.349,1.05,1.14,1.21,0.996,0.158,1,1.2,1.26,1.01
HCC-827,0.454,0.19,0.212,0.191,0.436,0.401,0.439,0.265,0.215,0.791,0.853,0.892,0.788,0.817,0.929,0.871,0.913,0.906
LK-2,0.877,0.967,0.546,0.324,0.385,0.807,0.428,0.181,0.105,0.205,0.404,0.293,0.291,0.237,0.28,0.331,0.307,0.256
HCC-366,1.06,1.02,1.08,1.02,0.627,0.622,0.721,0.521,0.254,0.264,0.482,0.332,0.137,0.077,0.363,,0.389,0.321
BEN,0.646,0.688,0.858,1.11,0.267,0.283,0.256,0.26,0.249,0.606,0.601,0.607,0.555,0.542,0.554,0.661,0.679,0.63
NCI-H23,1.17,0.987,0.94,0.41,0.693,0.821,0.775,,0.355,0.605,0.635,0.734,0.155,0.216,0.624,0.251,0.586,0.2
NCI-H1395,0.885,1.12,0.977,1.23,0.432,0.463,0.482,0.394,0.345,0.633,0.731,0.843,0.399,0.417,0.627,0.795,0.94,0.794
201T,0.957,1.05,1.02,1.04,0.416,0.483,0.431,0.367,0.351,0.893,1.02,1.02,0.795,0.749,0.965,1.08,1.05,1.04
NCI-H1793,0.337,0.935,0.535,0.805,0.312,0.477,0.546,0.192,0.156,0.632,0.967,0.928,0.128,0.182,0.542,0.508,0.809,0.969
NCI-H520,0.976,0.54,0.224,0.149,0.625,0.785,0.641,0.28,0.188,0.671,0.698,0.668,0.384,0.162,0.747,0.284,0.228,0.165
NCI-H727,0.968,0.831,0.853,0.76,0.529,0.644,0.622,,0.423,1.01,1.26,1.22,1.24,1.18,1.11,1.25,1.45,1.03
HCC-15,0.864,0.911,0.859,0.869,0.467,0.606,0.595,0.445,0.234,0.919,0.921,0.867,0.842,0.81,0.782,0.959,0.889,0.911
ABC-1,1.14,0.952,1.24,0.86,0.227,0.225,0.236,0.197,0.201,1.33,1.37,1.35,1.11,0.765,0.809,1.51,1.46,0.9
NCI-H460,0.797,1.15,1.08,1.04,0.552,0.682,0.609,0.105,0.102,0.673,1.04,0.917,0.645,0.742,0.743,0.719,0.687,0.643
EPLC-272H,0.772,1.18,0.936,1.29,0.278,0.371,0.333,0.25,0.207,0.29,0.444,0.511,0.286,0.168,0.408,0.531,0.401,0.294
